# Reference: US6013200A, “Low toxicity corrosion inhibitor” (Baker Hughes Incorporated, priority 1997, dated 2000)
# Legend:
# [1] = test system: Skeletonema costatum; experiment: Aquatic toxicity testing; format: in vivo
# [2] = Biodegradability in sea water; conditions: after 28 days
smiles,measurement,setting,value
NCCN1CCNC1=S [1-(2-aminoethyl)-2-imidazolidinethione],EC50,[1],236 µg/mL
same,biodegradability,[2],100%
